The nature of series [1]: Excretion study in rats (5 days) and residual gadolinium organ distribution (7 days). It counts as in vivo, rat. Conditions: male rats, 0.1 mmol Gd/kg bw i.v. As for the experimental part:
The excretion and organ distribution of Example 1 and 15 were determined in male rats (Han-Wistar, n=3). The compound was administered as a sterile aqueous solution (50 mmol Gd/L) as a bolus in the tail vein of the animals. The dose was 0.1 mmol Gd/kg bw.
Urine was collected in the following time periods 0-1 h, 1-3 h, 3-6 h, 6-24 h, 1-2 d and 2-5 d post injection […] and feces 0-1 d, 1-2 d and 2-5 d post injection. As a control, 3 animals were treated in the same way with RC1. On day 7 the animals were sacrificed, and the following organs were excised: blood, liver, kidney, spleen, heart, lung, brain, muscle, skin, stomach, gut, bone and bone marrow. The remaining carcass was freeze dried and ground to a fine powder. The Gd concentration in the organs and the carcass was determined by ICP-MS (ICP-MS Agilent 7500a, Waldbronn, Germany). The compounds are excreted via dual pathway (liver and kidney). Less than 1% of the administered dose was present in the body 7 days after the injection.

A short description of series [2]: Partition coefficient (logP butanol/buffer). The conditions noted are these: 1-butanol / 50 mM Tris-HCl, pH 7.4, room temperature. In kind it is physicochemical.

Consider `CCOCCOCCOc1ccc(CCC[C@@H](C(=O)O)N2CCN([C@@H](CO)C(=O)[O-])CCN([C@@H](CO)C(=O)[O-])CCN([C@@H](CO)C(=O)[O-])CC2)cc1.[Gd+3]` [Example 15, gadolinium (2S,2′S,2″S)-2,2′,2″-{10-[(1S)-1-carboxy-4-{4-[2-(2-ethoxyethoxy)ethoxy]phenyl}butyl]-1,4,7,10-tetraazacyclododecane-1,4,7-triyl}tris(3-hydroxypropanoate)], for which the “Excretion Urine” value was found to be 12.6 ± 11.1% Dose in series [1] (0-1 h post injection); 17.3 ± 3.4% Dose in series [1] (1-3 h post injection); 17.7 ± 3.3% Dose in series [1] (1-2 d post injection); 17.7 ± 3.3% Dose in series [1] (2-5 d post injection); 17.4 ± 3.3% Dose in series [1] (3-6 h post injection); 17.6 ± 3.3% Dose in series [1] (6-24 h post injection). Further, the results for the “Excretion Feces” value in series [1] (0-1 d post injection), in series [1] (1-2 d post injection) and in series [1] (2-5 d post injection) were 78.6 ± 6.2% Dose, 80.0 ± 5.3% Dose and 80.0 ± 5.3% Dose, respectively. Besides, the “Σ organs and carcass” value in series [1] (7 d post injection) is 0.11 ± 0.03% Dose. Besides, in series [1], the Total recovery was found to be 97.9 ± 5.4% Dose. In addition, the “Log P (butanol/buffer)” value in series [2] is −1.00.

Regarding `CCOc1ccc(CCCC[C@@H](C(=O)O)N2CCN(CC(=O)[O-])CCN(CC(=O)[O-])CCN(CC(=O)[O-])CC2)cc1.[Gd+3]` [Example 27, gadolinium 2,2′,2″-{10-[(1S)-1-carboxy-5-(4-ethoxyphenyl)pentyl]-1,4,7,10-tetraazacyclo-dodecane-1,4,7-triyl}triacetate], the “Log P (butanol/buffer)” value in series [2] was −0.41.

Turning to `CCOc1ccc(CCCC(C(=O)O)N2CCN(CC(=O)[O-])CCN(CC(=O)[O-])CCN(CC(=O)[O-])CC2)cc1.[Gd+3]` (stereo not drawn) [Example 28, gadolinium 2,2′,2″-{10-[1-carboxy-4-(4-ethoxyphenyl)butyl]-1,4,7,10-tetraazacyclododecane-1,4,7-triyl}triacetate], in series [2], the “Log P (butanol/buffer)” value is reported as −0.71.

Take `CCCC(C(=O)[O-])N1CCN(CC(=O)[O-])CCN(C(Cc2ccc(OCC)cc2)C(=O)O)CCN(CC(=O)[O-])CC1.[Gd+3]` (stereo not drawn) [Example 29, gadolinium 2-{7-[1-carboxy-2-(4-ethoxyphenyl)ethyl]-4,10-bis(carboxylatomethyl)-1,4,7,10-tetraazacyclododecan-1-yl}pentanoate]: the “Log P (butanol/buffer)” value in series [2] is −0.53.

Consider `CCCC(C(=O)[O-])N1CCN(CC(=O)[O-])CCN(C(Cc2ccc(OCC)cc2)C(=O)O)CCN(CC(=O)[O-])CC1.[Gd+3]` (stereo not drawn) [Example 30, gadolinium 2-{7-[1-carboxy-2-(4-ethoxyphenyl)ethyl]-4,10-bis(carboxylatomethyl)-1,4,7,10-tetraazacyclododecan-1-yl}pentanoate], for which the “Log P (butanol/buffer)” value in series [2] is recorded as −0.60.

`CCCCOc1ccc(CCC[C@@H](C(=O)O)N2CCN(CC(=O)[O-])CCN(CC(=O)[O-])CCN(CC(=O)[O-])CC2)cc1.[Gd+3]` [Example 31, gadolinium 2,2′,2″-{10-[(1S)-4-(4-butoxyphenyl)-1-carboxybutyl]-1,4,7,10-tetraazacyclododecane-1,4,7-triyl}triacetate]: in series [2], the “Log P (butanol/buffer)” value was determined as 0.20.

As to `CCOCCOc1ccc(CC(C(=O)O)N2CCN(CC(=O)[O-])CCN(CC(=O)[O-])CCN(CC(=O)[O-])CC2)cc1.[Gd+3]` (stereo not drawn) [Example 32, gadolinium 2,2′,2″-(10-{1-carboxy-2-[4-(2-ethoxyethoxy)phenyl]ethyl}-1,4,7,10-tetraazacyclododecane-1,4,7-triyl)triacetate], in series [2], the “Log P (butanol/buffer)” value was −1.53.

As to `CCCCOc1cccc(CCC[C@@H](C(=O)O)N2CCN([C@@H](CO)C(=O)[O-])CCN([C@@H](CO)C(=O)[O-])CCN([C@@H](CO)C(=O)[O-])CC2)c1.[Gd+3]` [Example 34, gadolinium (2S,2′S,2″S)-2,2′,2″-{10-[(1S)-4-(3-butoxyphenyl)-1-carboxybutyl]-1,4,7,10-tetraazacyclododecane-1,4,7-triyl}tris(3-hydroxypropanoate)], the “Log P (butanol/buffer)” value in series [2] was determined as 0.12.

Regarding `CCOCCOCCOc1ccc(CCC[C@@H](C(=O)O)N2CCN([C@@H](CO)C(=O)[O-])CCN([C@H](CO)C(=O)[O-])CCN([C@@H](CO)C(=O)[O-])CC2)cc1.[Gd+3]` [Example 35, gadolinium (2S,2′S)-2,2′-{4-[(1S)-1-carboxy-4-{4-[2-(2-ethoxyethoxy)ethoxy]phenyl}butyl]-10-[(1R)-1-carboxylato-2-hydroxyethyl]-1,4,7,10-tetraazacyclododecane-1,7-diyl}bis(3-hydroxypropanoate)], the “Log P (butanol/buffer)” value in series [2] is listed as −1.02.

Consider `CCOCCOCCOc1ccc(CC(C(=O)O)N2CCN(C(CCO)C(=O)[O-])CCN(C(CCO)C(=O)[O-])CCN(C(CCO)C(=O)[O-])CC2)cc1.[Gd+3]` (stereo not drawn) [Example 37, gadolinium-2,2′-{4-[1-carboxy-2-{4-[2-(2-ethoxyethoxy)ethoxy]phenyl}ethyl]-10-[1-carboxylato-3-hydroxypropyl]-1,4,7,10-tetraazacyclododecane-1,7-diyl}bis(4-hydroxybutanoate)], for which the “Log P (butanol/buffer)” value in series [2] is −1.16.

For `CCOCCOc1ccc(CC(C(=O)O)N2CCN(CC(=O)[O-])CCN(C(COC)C(=O)[O-])CCN(CC(=O)[O-])CC2)cc1.[Gd+3]` (stereo not drawn) [Example 38, gadolinium 2-[7-{1-carboxy-2-[4-(2-ethoxyethoxy)phenyl]ethyl}-4,10-bis(carboxylatomethyl)-1,4,7,10-tetraazacyclododecan-1-yl]-3-methoxypropanoate], the “Log P (butanol/buffer)” value in series [2] is −1.41.

With `CCOCCOCCOc1cc(CC(C(=O)O)N2CCN(CC(=O)[O-])CCN(CC(=O)[O-])CCN(CC(=O)[O-])CC2)cc(OCCOCCOCC)c1.[Gd+3]` (stereo not drawn) [Example 39, gadolinium 2,2′,2″-{10-[2-{3,5-bis[2-(2-ethoxyethoxy)ethoxy]phenyl}-1-carboxyethyl]-1,4,7,10-tetraazacyclododecane-1,4,7-triyl}triacetate], the “Log P (butanol/buffer)” value in series [2] was −1.32.

For the molecule `CCOCCOCCOCCOc1ccc(C[C@@H](C(=O)O)N2CCN(CC(=O)[O-])CCN(CC(=O)[O-])CCN(CC(=O)[O-])CC2)c(OCCOCCOCCOCC)c1.[Gd+3]` [Example 40, gadolinium 2,2′,2″-{10-[(1S)-2-(2,4-bis{2-[2-(2-ethoxyethoxy)ethoxy]ethoxy}phenyl)-1-carboxyethyl]-1,4,7,10-tetraazacyclododecane-1,4,7-triyl}triacetate], in series [2], the “Log P (butanol/buffer)” value is −1.43.

For the molecule `CCOCCOCCOc1ccc(CC(C(=O)O)N2CCN(CC(=O)[O-])CCN(C(CO)C(=O)[O-])CCN(CC(=O)[O-])CC2)cc1.[Gd+3]` (stereo not drawn) [Example 41, gadolinium-2-{7-[1-carboxy-2-{4-[2-(2-ethoxyethoxy)ethoxy]phenyl}ethyl]-4,10-bis(carboxylatomethyl)-1,4,7,10-tetraazacyclododecan-1-yl}-3-hydroxypropanoate], in series [2], the “Log P (butanol/buffer)” value is on record as −1.61.

On to `CCOCCOCCOCCOc1ccc(CC(C(=O)O)N2CCN(CC(=O)[O-])CCN(C(CO)C(=O)[O-])CCN(CC(=O)[O-])CC2)cc1.[Gd+3]` (stereo not drawn) [Example 42, gadolinium-2-{7-[1-carboxy-2-(4-{2-[2-(2-ethoxyethoxy)ethoxy]ethoxy}phenyl)ethyl]-4,10-bis(carboxylatomethyl)-1,4,7,10-tetraazacyclododecan-1-yl}-3-hydroxypropanoate], for which the “Log P (butanol/buffer)” value in series [2] is recorded as −1.60.

For the molecule `CCOCCOCCOc1ccc(CC(C(=O)[O-])N2CCN(CC(=O)[O-])CCN(C(CC)C(=O)O)CCN(CC(=O)[O-])CC2)cc1.[Gd+3]` (stereo not drawn) [Example 43, gadolinium-2-{4,10-bis(carboxylatomethyl)-7-[1-carboxypropyl]-1,4,7,10-tetraazacyclododecan-1-yl}-3-{4-[2-(2-ethoxyethoxy)ethoxy]phenyl}propanoate], in series [2], the “Log P (butanol/buffer)” value is −1.19.

Regarding `COCC(C(=O)O)N1CCN(CC(=O)[O-])CCN(C(Cc2ccc(OCC(F)(F)C(F)F)cc2)C(=O)[O-])CCN(CC(=O)[O-])CC1.[Gd+3]` (stereo not drawn) [Example 45, gadolinium-2-{4,10-bis(carboxylatomethyl)-7-[1-carboxy-2-methoxyethyl]-1,4,7,10-tetraazacyclododecan-1-yl}-3-[4-(2,2,3,3-tetrafluoropropoxy)phenyl]propanoate], in series [2], the “Log P (butanol/buffer)” value is recorded as −0.36.

Turning to `O=C([O-])CN1CCN(CC(=O)[O-])CCN(C(Cc2ccc(OCC(F)(F)C(F)F)cc2)C(=O)O)CCN(CC(=O)[O-])CC1.[Gd+3]` (stereo not drawn) [Example 46, gadolinium 2,2′,2″-(10-{1-carboxy-2-[4-(2,2,3,3-tetrafluoropropoxy)phenyl]ethyl}-1,4,7,10-tetraazacyclododecane-1,4,7-triyl)triacetate], the “Log P (butanol/buffer)” value in series [2] is −0.57.

As to `O=C([O-])CN1CCN(CC(=O)[O-])CCN([C@H](Cc2ccc(OCC(F)(F)F)cc2)C(=O)O)CCN(CC(=O)[O-])CC1.[Gd+3]` [Example 47, gadolinium 2,2′,2″-(10-{(1R)-1-carboxy-2-[4-(2,2,2-trifluoroethoxy)phenyl]ethyl}-1,4,7,10-tetraazacyclododecane-1,4,7-triyl)triacetate], the “Log P (butanol/buffer)” value in series [2] is on record as −0.77.

The values are drawn from patent US20240182431A1, “NEW CONTRAST AGENT FOR USE IN MAGNETIC RESONANCE IMAGING” (Bayer Aktiengesellschaft, priority 2021, published 2024).
